Molecules are shown by their SMILES. Bounds are passed on as bounds.

Consider one molecule from patent US5750540A, “1,4-di-substituted piperidine derivatives” (Banyu Pharmaceutical Co., Ltd., priority 1995, dated 1998).

Assay [1] has as its target T1, intestinal M3 receptors (ileum) (Rattus norvegicus, UniProt P08483).
T1 construct: the ileum was excised; from tissue; host or cells: isolated rat ileum
Kind of assay: Antagonism against intestinal M3 receptors in an isolated rat ileum. The following applies: in vitro, agonist carbachol. The protocol: 4) Tests for antagonism against the intestinal M3 receptors in an isolated rat ileum
A male SD strain rat (weighing 300-500 g) was killed by exsanguination, and the ileum was excised. This ileum was cut to make ileum preparations having a length of 2 cm. A preparation was suspended in a Magnus tube filled with 20 ml of Krebs-Henseleit nutrient solution (gassed with 95% O2 -5% CO2 and kept at 32° C.) under a load of 0.5 g. The tension of the preparation was recorded isotonically. After being equilibrated for an hour, the preparation was made to contract twice by treatment with 10^-4 M carbachol, and the second contraction induced by carbachol was used as the reference contraction. After the preparation was washed with fresh solution to make a return to the base line, a test compound was administered thereto (or no treatment was made). Ten minutes later, carbachol (10^-8 to 10^-3 M) was cumulatively administered from the lowermost concentration in three-fold increasing doses to obtain a dose-response curve. The dose-response curve was constructed by expressing responses as percentages based on the reference contraction of the preparation. The antagonistic potency (KB value) of the test compound was determined from the degree of shift of the dose-response curve obtained by treatment with the test compound.

The target of a further assay is muscarinic M3 receptor (Rattus norvegicus, UniProt P08483). Kind of assay: in vivo. The settings on record: iv, read-out: Salivary secretion ID50. More on the design: from tissue; host or cells: living rat, airways. The protocol: Tests for antagonism against muscarinic M3 receptor (in vivo)
Chain of muscarinic M3 receptor (P08483 whole entry): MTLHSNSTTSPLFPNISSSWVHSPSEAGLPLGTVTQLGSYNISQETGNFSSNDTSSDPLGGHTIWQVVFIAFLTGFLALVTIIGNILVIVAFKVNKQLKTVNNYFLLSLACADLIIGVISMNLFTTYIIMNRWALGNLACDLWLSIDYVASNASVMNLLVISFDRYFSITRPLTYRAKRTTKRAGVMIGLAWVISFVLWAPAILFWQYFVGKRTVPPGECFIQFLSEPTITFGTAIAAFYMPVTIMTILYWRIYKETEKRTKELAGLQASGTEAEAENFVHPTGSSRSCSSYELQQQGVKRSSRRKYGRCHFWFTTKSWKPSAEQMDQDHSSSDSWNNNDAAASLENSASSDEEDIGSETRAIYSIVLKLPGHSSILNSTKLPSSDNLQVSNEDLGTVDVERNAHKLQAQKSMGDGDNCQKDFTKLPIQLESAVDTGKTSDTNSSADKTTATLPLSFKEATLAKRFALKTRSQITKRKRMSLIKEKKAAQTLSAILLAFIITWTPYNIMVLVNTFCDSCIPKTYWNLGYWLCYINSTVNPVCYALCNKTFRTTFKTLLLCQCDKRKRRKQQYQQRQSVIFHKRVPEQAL
2) Tests for salivary secretion in rats
Five- to seven-weeks-old male rats of the Sprague-Dawley strain were anesthetized with sodium pentobarbital (65 mg/kg, i.p.), and a cannula was inserted into the right jugular vein for purposes of drug administration. A test compound was administered intravenously. Five minutes later, carbachol (10 μg/kg, i.v.) was administered to evoke salivary secretion. For each rat, saliva collection was started immediately after carbachol administration and continued for ten minutes. This was carried out by inserting glass capillaries (Drummond, 100 μl) into the oral cavity of the rat at intervals of one minute. The amount of collected saliva was determined on the assumption that a length of 75 mm of the glass capillary corresponded to 100 μl. Physiological saline was used in the control group. The ID50 value was calculated from the dose-response curve of the test compound using probit analysis and defined as the drug dose that inhibited the carbachol-induced salivation in the control group by 50%.

A further assay concerns the target T2, muscarinic M2 receptors (Rattus norvegicus, UniProt P10980).
T2 construct: a membrane specimen from the heart was used as the membrane specimen; from tissue; host or cells: rat heart membranes (SD rat)
T2 sequence (P10980 1-466): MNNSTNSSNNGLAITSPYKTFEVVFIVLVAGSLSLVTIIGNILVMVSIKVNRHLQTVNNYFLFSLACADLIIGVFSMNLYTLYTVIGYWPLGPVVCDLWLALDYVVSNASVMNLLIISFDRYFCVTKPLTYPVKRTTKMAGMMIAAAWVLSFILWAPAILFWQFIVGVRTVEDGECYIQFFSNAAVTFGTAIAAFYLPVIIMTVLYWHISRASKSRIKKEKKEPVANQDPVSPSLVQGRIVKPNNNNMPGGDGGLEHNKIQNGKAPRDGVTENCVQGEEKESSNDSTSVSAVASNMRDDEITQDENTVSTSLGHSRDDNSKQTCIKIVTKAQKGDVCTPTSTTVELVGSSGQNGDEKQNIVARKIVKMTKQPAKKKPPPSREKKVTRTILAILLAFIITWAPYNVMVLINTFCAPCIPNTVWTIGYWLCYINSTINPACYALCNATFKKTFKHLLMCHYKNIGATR
Kind of assay: Bradycardia in rats (acetylcholine-induced). Format: in vivo. The following applies: iv, 5 min, i.v., 5 minutes after administration, 50% inhibition of acetylcholine-induced bradycardia, read-out: Bradycardia ID50. As for the experimental part:
6) Tests for bradycardia in rats
Eight- to eleven-weeks-old male rats of the Sprague-Dawley strain, weighing 300-400 g, were anesthetized with urethane (750 mg/kg, i.p.) and α-chloralose (37.5 mg/kg, i.p.). A bronchus was intubated, and the right jugular vein was cannulated for drug administration. […] To evoke bradycardia, acetylcholine (50 μg/kg, i.v.) was administered to the animals. Mean values for the acetylcholine-induced decrease in heart rate as measured five minutes before (control) and five minutes after test compound administration were calculated and the results were expressed as percentages relative to the control response. The ID50 value was calculated from the dose-response curve of the test compound using probit analysis and defined as the drug dose that inhibited the acetylcholine-induced bradycardia in the control group by 50%.

T1 sequence (P08483 whole entry): as the sequence (P08483 whole entry) above

In general, Kb refers to the equilibrium dissociation constant of an antagonist, usually derived from a functional assay. On to `CC(C)=CCCN1CCC(NC(=O)C(O)(c2ccccc2)C2CCC2)CC1` (stereo not drawn) [Example 1, N-[1-(4-methyl-3-pentenyl)-piperidin-4-yl]-2-cyclobutyl-2-hydroxy-2-phenylacetamide], for which the Kb in assay [1] came to 24 nM. The ED50 at muscarinic M3 receptor is 0.19 mg/kg; at muscarinic M2 receptors it was more than 3 mg/kg.
